We go through 19 compounds from US9468693B2, “Labeled molecular imaging agents and methods of use” (GENERAL ELECTRIC COMPANY, priority 2014, dated 2016).

The first assay has as its target T1, cystine/glutamate transporter (Homo sapiens, UniProt Q9UPY5).
T1 construct: endogenous in cells; host or cells: SKOV3 cells treated with 100 uM DEM (the paragraph also says 'DEM treated EL4 cells')
T1 sequence (Q9UPY5 1-501): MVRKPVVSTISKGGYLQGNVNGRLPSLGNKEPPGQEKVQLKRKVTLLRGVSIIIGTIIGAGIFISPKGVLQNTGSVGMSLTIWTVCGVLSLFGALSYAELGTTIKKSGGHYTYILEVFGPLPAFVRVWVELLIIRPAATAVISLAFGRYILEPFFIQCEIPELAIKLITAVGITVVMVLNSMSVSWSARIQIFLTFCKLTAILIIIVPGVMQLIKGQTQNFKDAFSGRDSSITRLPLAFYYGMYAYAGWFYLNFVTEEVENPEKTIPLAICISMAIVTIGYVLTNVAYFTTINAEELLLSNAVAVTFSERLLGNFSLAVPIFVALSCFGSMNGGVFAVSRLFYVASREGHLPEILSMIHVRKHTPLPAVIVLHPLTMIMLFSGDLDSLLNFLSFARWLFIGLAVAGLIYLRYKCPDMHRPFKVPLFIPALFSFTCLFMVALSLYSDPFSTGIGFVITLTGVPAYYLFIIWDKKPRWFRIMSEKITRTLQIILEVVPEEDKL
T1 sequence (P08195 2-529 partner): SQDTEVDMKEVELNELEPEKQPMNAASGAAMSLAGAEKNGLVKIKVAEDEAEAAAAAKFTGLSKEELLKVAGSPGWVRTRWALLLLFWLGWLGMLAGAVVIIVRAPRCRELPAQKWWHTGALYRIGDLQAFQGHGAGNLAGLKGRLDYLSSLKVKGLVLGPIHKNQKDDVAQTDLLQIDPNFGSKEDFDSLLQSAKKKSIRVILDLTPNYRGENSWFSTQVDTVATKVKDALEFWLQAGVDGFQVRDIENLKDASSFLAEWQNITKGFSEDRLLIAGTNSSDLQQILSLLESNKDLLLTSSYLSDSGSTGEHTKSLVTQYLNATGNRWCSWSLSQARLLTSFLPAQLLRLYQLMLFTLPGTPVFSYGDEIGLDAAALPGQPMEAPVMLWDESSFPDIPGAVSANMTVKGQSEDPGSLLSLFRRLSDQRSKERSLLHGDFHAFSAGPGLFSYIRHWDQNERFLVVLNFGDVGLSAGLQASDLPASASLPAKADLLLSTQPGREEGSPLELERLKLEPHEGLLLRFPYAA
Nature of the assay: inhibition of 3H-L-Glu uptake in DEM treated cells. Format: cell-based. The conditions noted are these: 0.5 h; 1 mM agent; 30 minutes uptake at room temperature; cells pretreated with 100 μM DEM overnight; triplicate; lower = inhibition of the transporter; read-out: % of contro1 3H-Glu uptake. Here is the method:
Following are non-limiting examples used to illustrate various embodiments of the imaging agents and methods of use. As such Table 1 provides examples of the non-labelled analog of the final product. Also provided are measurements of inhibition response of ^3H-L-GLU (control) uptake in DEM treated EL4 cells. As such 96 well plate were seeded with 100,000 SKOV3 cells/well in complete growth media (McCoy's+10% Fetal Bovine Serum(FBS)) and incubated overnight at 37° C. The media was changed to 100 μM DEM and again incubated overnight at 37° C. Wash 1× with Hank's Balanced Salt Solution (HBSS) Room Temperature and assayed 50 μl of each agent (Table 1) in triplicate by incubating for 30 minutes (uptake) at room temperature. It was then washed twice with HBSS and 200 μl MicroScint20 added for counting. The protocol used 200 uCi 3H-Glu per well. The mix and agent and ^3H-Glu provided a final concentration of 200 uCi and 1 mM agent. […] As such lower response is indicative of inhibition of the transporter. As such numbers below approximately 30% is equivalent to 70% inhibition and are considered good candidates for pharmaceutical agents.
Consider `N[C@@H](CCC(=O)N1C[C@H](OCc2ccccc2)CC1C(=O)O)C(=O)O` (some centres unmarked) [1p], for which the remaining activity at 1000 µM stood at 50%.
On the same count and under the same terms, the result for `N[C@@H](CCC(=O)N1C[C@H](O)C[C@@H]1C(=O)O)C(=O)O` [1g] reads 94.7%; that for `N[C@@H](CCC(=O)N1C[C@H](O)C[C@H]1C(=O)O)C(=O)O` [1c], 73.6%; that for `N[C@@H](CCC(=O)N1C[C@H](OCc2ccc(COCCF)cc2)C[C@H]1C(=O)O)C(=O)O` [1r], 10.1%.
On the same count and under the same terms, the result for `N[C@@H](CCC(=O)N1C[C@@H](OCc2ccccc2)CC1C(=O)O)C(=O)O` (some centres unmarked) [1o] reads 43.2%; that for `N[C@@H](CCC(=O)N1CCC[C@H]1C(=O)O)C(=O)O` [1a], 46.3%; that for `CCOc1cccc(CO[C@@H]2C[C@@H](C(=O)O)N(C(=O)CC[C@H](N)C(=O)O)C2)c1` [1q], 14.5%.
On the same count and under the same terms, the result for `N[C@@H](CCC(=O)N1CCC[C@@H]1C(=O)O)C(=O)O` [1b] reads 84%.
Take `N[C@@H](CCC(=O)N1C[C@@H](Oc2ccccc2)C[C@H]1C(=O)O)C(=O)O` [1j]: the remaining activity at 1000 µM came to 33%.
On the same count and under the same terms, the same measure for `N[C@@H](CCC(=O)N1C[C@H](Oc2ccccc2)C[C@H]1C(=O)O)C(=O)O` [1l]: 36.6%.
Same read-out and setting: the same measure for `N[C@@H](CCC(=O)N1C[C@@H](c2ccccc2)C[C@H]1C(=O)O)C(=O)O` [1i]: 46.2%; for `N[C@@H](CCC(=O)N1C[C@H](F)C[C@H]1C(=O)O)C(=O)O` [1d]: 51.8%.
Same read-out and setting: the same measure for `N[C@@H](CCC(=O)N1C[C@@H](O)C[C@@H]1C(=O)O)C(=O)O` [1e]: 74%; for `N[C@@H](CCC(=O)N1C[C@H](OCc2ccccc2)C[C@H]1C(=O)O)C(=O)O` [1m]: 14.9%; for `N[C@@H](CCC(=O)N1C[C@H](Cc2ccccc2)C[C@H]1C(=O)O)C(=O)O` [1k]: 30.9%.
`N[C@@H](CCC(=O)N1C[C@@H](O)C[C@H]1C(=O)O)C(=O)O` [1f]: the remaining activity at 1000 µM came to 30.8%.
The same measure, in the same setting: the same measure for `N[C@@H](CCC(=O)N1C[C@H](c2ccccc2)C[C@H]1C(=O)O)C(=O)O` [1h]: 52.3%; for `N[C@@H](CCC(=O)N1C[C@@H](OCc2ccccc2)C[C@H]1C(=O)O)C(=O)O` [1n]: 26.2%.

Still in this assay, the particulars now being: comparison of the 2S,4R-hydroxyproline scaffold with the other stereoisomers.
Regarding `N[C@@H](CCC(=O)N1C[C@H](OCc2ccccc2)C[C@H]1C(=O)O)C(=O)O` [1m], the “uptake compared to structures 1n, 1o, or 1p (hydroxyproline stereoisomers)” value is recorded as “improved uptake”.

Another assay addresses T2, oxidative stress transporter (Homo sapiens, UniProt Q9UPY5).
T2 sequence (Q9UPY5 1-501): T1 sequence (Q9UPY5 1-501)
T2 sequence (P08195 1-529 partner): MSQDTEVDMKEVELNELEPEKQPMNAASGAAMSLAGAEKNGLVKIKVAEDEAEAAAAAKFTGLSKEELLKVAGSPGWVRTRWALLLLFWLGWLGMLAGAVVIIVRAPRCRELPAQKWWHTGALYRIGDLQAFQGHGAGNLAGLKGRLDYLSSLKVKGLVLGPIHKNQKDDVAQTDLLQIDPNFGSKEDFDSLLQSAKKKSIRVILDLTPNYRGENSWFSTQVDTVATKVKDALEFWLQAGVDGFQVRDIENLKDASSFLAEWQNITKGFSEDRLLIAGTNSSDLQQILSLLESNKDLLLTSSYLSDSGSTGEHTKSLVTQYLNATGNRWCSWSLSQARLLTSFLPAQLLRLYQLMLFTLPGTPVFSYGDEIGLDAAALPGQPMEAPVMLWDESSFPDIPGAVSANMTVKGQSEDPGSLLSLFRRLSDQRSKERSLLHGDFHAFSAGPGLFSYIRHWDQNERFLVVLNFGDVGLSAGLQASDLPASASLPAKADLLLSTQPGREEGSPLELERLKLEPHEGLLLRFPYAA
Experiment: not given
The conditions noted are these: as reported in U.S. patent application Ser. No. 13/234,210; cited from earlier work.
In the case of `N[C@@H](CCCCCC(=O)O)C(=O)O` [aminosuberic acid], the “uptake via the oxidative stress transporter” value is recorded as “good uptake”.
